Reference: patent US4220643A, “Nitrosourea pentose compounds” (priority 1977, dated 1980)

Legend:
experimental tumors = conditions: wide variety of experimental tumors; refers to U.S. Pat. No. 4,086,415; cited from earlier work
Leukemia L 1210 cells = assay: Anti-leukemic activity on Leukemia L 1210 in mice (60 days observation); format: in vivo, mice (male BDF1); conditions: for ILS (percentage increase in life-span) / Mean survival days: 60 days observation
Description: The anti-leukemic activity of both the anomers of this invention was tested on Leukemia L 1210 in mice, details of which are given below. By way of comparison, the 1-methyl homologue of the β-anomer of this invention, i.e. 1-methyl-1-nitroso-3-(β-D-ribofuranosyl) urea (refer to T. Suami et al., Japanese Patent Prepublication No. 83365/75), was tested in a similar way.
Male BDF1 mice, aged about 7-weeks old and weighing 22±3 g were used in groups of three animals each for the test of compounds No. 1 and No. 2 or of two animals each for the test of compound No. 3.
Leukemia L 1210 cells were used. For the test of compounds No. 1 and No. 2, 2×10^6 cells/0.04 ml/mouse were intraperitoneally inoculated and for the test of compound No. 3, 1.8×10^6 /0.04 ml/mouse were intraperitoneally inoculated.
The test compound was dissolved in a physiological salt solution to give a series of solutions in predetermined concentrations and 0.1 ml of the each solution was administered intraperitoneally to each mouse once a day from the 24th hour after the tumor cell inoculation for 3 consecutive days for the test of compounds No. 1 and No. 2 or for 2 consecutive days for the test of compound No. 3. The anti-leukemic activity of the compounds tested was assessed by mean survival days, percentage increase in life-span, number of survivors after 60 days observation and the volume of ascites. The percentage increase in life-span (ILS) was calculated as follows: […]
T: The mean survival days of the treated animals
C: The mean survival days of the untreated animals
The control test for this purpose was carried out in the same way as that used for the test of compounds No. 1 and No. 2 or for the test of compound No. 3 except that 0.1 ml of the physiological salt solution was administered in place of the solution of the test compound.

[1] = Acute toxicity in intraperitoneal administration to BDF1 mice; conditions: mouse, in vivo, ip
From the text: The nitrosourea compounds according to this invention are further characterized by their low toxicity. Thus, acute toxicity of the compounds in intraperitoneal administration to BDF1 mice is as follows: […]

[2] = 1 mg/kg i.p. once daily, 3 consecutive days
[3] = 2 mg/kg i.p. once daily, 3 consecutive days
[4] = 2 mg/kg i.p. once daily, 3 consecutive days, untreated control 4.5 ml
[5] = 4 mg/kg i.p. once daily, 3 consecutive days
[6] = 4 mg/kg i.p. once daily, 3 consecutive days, untreated control 4.5 ml
[7] = 8 mg/kg i.p. once daily, 3 consecutive days
[8] = 8 mg/kg i.p. once daily, 3 consecutive days, untreated control 4.5 ml
[9] = 16 mg/kg i.p. once daily, 3 consecutive days
[10] = 16 mg/kg i.p. once daily, 3 consecutive days, untreated control 4.5 ml
[11] = dose not given, i.p. once daily, 3 consecutive days
[12] = 50 mg/kg i.p. once daily, 2 consecutive days
[13] = 100 mg/kg i.p. once daily, 2 consecutive days
[14] = 200 mg/kg i.p. once daily, 2 consecutive days
[15] = 250 mg/kg i.p. once daily, 2 consecutive days

O=NN(CCCl)C(=O)N[C@@H]1O[C@H](CO)[C@@H](O)[C@H](O)[C@H]1O [GANU, 1-(2-chloroethyl)-3-(β-D-glucopyranosyl)-1-nitrosourea]
Antitumor activity, in words (experimental tumors): broad spectrum of antitumor activity against a wide variety of experimental tumors

O=NN(CCCl)C(=O)N[C@H]1O[C@H](CO)[C@@H](O)[C@H]1O [compound 1, 1-(2-chloroethyl)-1-nitroso-3-(α-D-ribofuranosyl) urea]
Number of survivors (after 60 days) (Leukemia L 1210 cells; [2]): 0/3 | ILS (percentage increase in life-span) (Leukemia L 1210 cells; [2]): 37.0% | Mean survival days (Leukemia L 1210 cells; [2]): 13.7 days | Volume of ascites (Leukemia L 1210 cells; 1 mg/kg i.p. once daily, 3 consecutive days, untreated control 4.5 ml): 1.7 mL | Number of survivors (after 60 days) (Leukemia L 1210 cells; [3]): 0/3 | ILS (percentage increase in life-span) (Leukemia L 1210 cells; [3]): 50.0% | Mean survival days (Leukemia L 1210 cells; [3]): 15.3 days | Volume of ascites (Leukemia L 1210 cells; [4]): 0 mL | Number of survivors (after 60 days) (Leukemia L 1210 cells; [5]): 2/3 | ILS (percentage increase in life-span) (Leukemia L 1210 cells; [5]): > 383.0% | Mean survival days (Leukemia L 1210 cells; [5]): > 48.3 days | Volume of ascites (Leukemia L 1210 cells; [6]): 0 mL | Number of survivors (after 60 days) (Leukemia L 1210 cells; [7]): 2/3 | ILS (percentage increase in life-span) (Leukemia L 1210 cells; [7]): > 323.0% | Mean survival days (Leukemia L 1210 cells; [7]): > 42.3 days | Volume of ascites (Leukemia L 1210 cells; [8]): 0 mL | Number of survivors (after 60 days) (Leukemia L 1210 cells; [9]): 0/3 | ILS (percentage increase in life-span) (Leukemia L 1210 cells; [9]): 13.0% | Mean survival days (Leukemia L 1210 cells; [9]): 11.3 days | Volume of ascites (Leukemia L 1210 cells; [10]): 0 mL | LD50 [1]: 34 mg/kg

O=NN(CCCl)C(=O)N[C@@H]1O[C@H](CO)[C@@H](O)[C@H]1O [compound 2, 1-(2-chloroethyl)-1-nitroso-3-(β-D-ribofuranosyl) urea]
Number of survivors (after 60 days) (Leukemia L 1210 cells; [3]): 1/3 | ILS (percentage increase in life-span) (Leukemia L 1210 cells; [3]): > 223.0% | Mean survival days (Leukemia L 1210 cells; [3]): > 32.3 days | Volume of ascites (Leukemia L 1210 cells; [4]): 0 mL | Number of survivors (after 60 days) (Leukemia L 1210 cells; [5]): 2/3 | ILS (percentage increase in life-span) (Leukemia L 1210 cells; [5]): > 360.0% | Mean survival days (Leukemia L 1210 cells; [5]): > 46.0 days | Volume of ascites (Leukemia L 1210 cells; [6]): 0 mL | Number of survivors (after 60 days) (Leukemia L 1210 cells; [7]): 3/3 | ILS (percentage increase in life-span) (Leukemia L 1210 cells; [7]): > 500.0% | Mean survival days (Leukemia L 1210 cells; [7]): > 60.0 days | Volume of ascites (Leukemia L 1210 cells; [8]): 0 mL | Number of survivors (after 60 days) (Leukemia L 1210 cells; [9]): 0/3 | ILS (percentage increase in life-span) (Leukemia L 1210 cells; [9]): -13.0% | Mean survival days (Leukemia L 1210 cells; [9]): 8.7 days | Volume of ascites (Leukemia L 1210 cells; [10]): 0 mL | Number of survivors (after 60 days) (Leukemia L 1210 cells; [11]): 0/3 | ILS (percentage increase in life-span) (Leukemia L 1210 cells; [11]): 53.0% | Mean survival days (Leukemia L 1210 cells; [11]): 15.3 days | Volume of ascites (Leukemia L 1210 cells; dose not given, i.p. once daily, 3 consecutive days, untreated control 4.5 ml): 2.5 mL | LD50 [1]: 30 mg/kg

CN(N=O)C(=O)N[C@@H]1O[C@H](CO)[C@@H](O)[C@H]1O [compound 3, 1-methyl-1-nitroso-3-(β-D-ribofuranosyl) urea, reference compound]
Number of survivors (after 60 days) (Leukemia L 1210 cells; [12]): 0/2 | ILS (percentage increase in life-span) (Leukemia L 1210 cells; [12]): 50.0% | Mean survival days (Leukemia L 1210 cells; [12]): 15.0 days | Volume of ascites (Leukemia L 1210 cells; 50 mg/kg i.p. once daily, 2 consecutive days, untreated control 5.3 ml): 4.6 mL | Number of survivors (after 60 days) (Leukemia L 1210 cells; [13]): 0/2 | ILS (percentage increase in life-span) (Leukemia L 1210 cells; [13]): 50.0% | Mean survival days (Leukemia L 1210 cells; [13]): 15.0 days | Volume of ascites (Leukemia L 1210 cells; 100 mg/kg i.p. once daily, 2 consecutive days, untreated control 5.3 ml): 0.7 mL | Number of survivors (after 60 days) (Leukemia L 1210 cells; [14]): 0/2 | ILS (percentage increase in life-span) (Leukemia L 1210 cells; [14]): 80.0% | Mean survival days (Leukemia L 1210 cells; [14]): 18.0 days | Volume of ascites (Leukemia L 1210 cells; 200 mg/kg i.p. once daily, 2 consecutive days, untreated control 5.3 ml): 0.3 mL | Number of survivors (after 60 days) (Leukemia L 1210 cells; [15]): 0/2 | ILS (percentage increase in life-span) (Leukemia L 1210 cells; [15]): 15.0% | Mean survival days (Leukemia L 1210 cells; [15]): 11.5 days | Volume of ascites (Leukemia L 1210 cells; 250 mg/kg i.p. once daily, 2 consecutive days, untreated control 5.3 ml): 0.6 mL
